Measurements from patent US20090186915A1, “Compositions and methods for treatment of glioblastoma, gliosarcoma, NSCLC, and head and neck cancer” (Unibioscreen S. A., priority 2006, published 2009).
Where two headings read alike, the source gives them in different places.

Tests used:
PC3 = experiment: MTT overall cell growth, PC3 cells; assay type: cell-based; settings: Homo sapiens, 72 h; PC-3; 3 days of culturing; mean of six determinations; read-out: IC50 (μM) In Vitro Growth Inhibition
Experimental: Tests were performed in order to rapidly, i.e. within 5 days, measure the effect of the compound of example 2 on the overall cell growth. The test measures the number of metabolically active living cells that are able to transform the yellow product 3-(4,5-dimethylthiazol-2-yl)-2,5-diphenyl tetrazolium bromide (herein referred as MTT) into the blue product formazan dye by mitochondrial reduction. The amount of formazan obtained at the end of the experiment, measured by means of a spectrophotometer, is directly proportional to the number of living cells. Optical density determination thus enables a quantitative measurement of the effect of the investigated compounds as compared to the control condition (untreated cells) and/or to other reference compounds. […]
(§1) After 72 hours of incubation at 37° C. with (experimental conditions) or without (control condition) the compound to be tested, the medium was replaced by 100 μl MTT dissolved in RPMI (1640 without phenol red) at a concentration of 1 mg/ml. […] The micro-wells were shaken for 5 minutes and read on a spectrophotometer at wavelengths of 570 nm (maximum formazan absorbance) and 630 nm (back-ground noise).
For each experimental condition, the mean optical density was calculated, as well as the percentage of remaining living cells in comparison with the control. […]

PC-3 [1] = experiment: Quantitative videomicroscopy, PC-3; assay type: cell-based, human
Experimental: Use was made of computer-assisted phase-contrast microscopy (quantitative videomicroscopy) in the attempt to elucidate an overall picture of UNBS5162's mechanism of action. […] In addition, 10 μM UNBS5162 caused a marked enlargement in PC-3 cells by the end of the 6-day treatment period compared with the start of the experiment.

BxPC3 = experiment: MTT overall cell growth, BxPC3 cells; assay type: cell-based; settings: Homo sapiens
Experimental: Tests were performed in order to rapidly, i.e. within 5 days, measure the effect of the compound of example 2 on the overall cell growth. The test measures the number of metabolically active living cells that are able to transform the yellow product 3-(4,5-dimethylthiazol-2-yl)-2,5-diphenyl tetrazolium bromide (herein referred as MTT) into the blue product formazan dye by mitochondrial reduction. The amount of formazan obtained at the end of the experiment, measured by means of a spectrophotometer, is directly proportional to the number of living cells. Optical density determination thus enables a quantitative measurement of the effect of the investigated compounds as compared to the control condition (untreated cells) and/or to other reference compounds.
Six human cancer cell lines described in table 1 were used in the following MTT tests. These cell lines cover six histological cancer types, being prostate, glioma, pancreas, colon, lung and breast cancers. Cells were allowed to grow in 96 well micro-wells with a flat bottom with an amount of 100 μl of cell suspension per well with 1,000 to 4,000 cells/well depending on the cell type used. Each cell line was seeded in a well known MEM 10% serum culture medium. […]
as §1
For each experimental condition, the mean optical density was calculated, as well as the percentage of remaining living cells in comparison with the control.
The overall growth of human cancer cell lines was determined by means of the calorimetric MTT (3-[4,5-dimethylthiazol-2-yl]-diphenyl tetrazolium bromide; Sigma) assay, as detailed previously.

E2F1 = E2F1 expression (Western blot, RT-PCR), PC-3; assay type: cell-based, human; settings: 10 μM
Experimental: Reverse transcription reactions were carried out in a thermal cycler (Thermocycler; Westburg, Leusden, The Netherlands). The purification of the cDNAs produced was undertaken using the High Pure PCR Product Purification Kit (Roche Diagnostics, Mannheim, Germany) in accordance with the manufacturer's instructions. Quantitative PCR reactions were performed with 50 ng of purified cDNA in a LightCycler thermocycler instrument (Roche Diagnostics) using LCFastart DNA Master SYBR Green 1 (Roche Diagnostics). After amplification, data analysis was carried out by means of the “Fit points” algorithm of the LightCycler quantification software. A standard curve enabled cDNA quantification of samples to be effected. […]
Cell extracts were prepared by the lysis of subconfluent PC-3 cells directly in boiling lysis buffer (10 mM Tris, pH 7.4, 1 mM Na3O4V, 1% SDS, pH 7.4). Approximately 40 μg of extracted proteins (evaluated by the bicinchoninic acid protein assay; Pierce, Perbio Science, Erembodegem, Belgium) was then loaded onto a denaturing polyacrylamide gel. The proteins submitted to Western blot analyses were detected using primary antibodies provided by: 1) CST Technologies, Bioké, Leiden, The Netherlands: Rb (1:2000) and p-Rb (1:1000); 2) BD Transduction Laboratories, Erembodegem, Belgium: E2F1 (1:400); and 3) AbCam, Cambridge, UK: tubulin (1:3000, used as a loading control). […]

PC-3 [2] = experiment: Cell cycle kinetics by flow cytometry (PI), PC-3; assay type: cell-based, human
Experimental: (§2) The cell cycle kinetics of prostate cancer cells left untreated or incubated with UNBS5162 were determined by flow cytometry analysis of propidium iodide (PI) nuclear staining, using previously detailed methodology. Each sample was evaluated in triplicate. Flow cytometry was undertaken using an Epics XL.MCL flow cytometer and the FACScan/CellQuest software system (Becton Dickinson, Miami, Fla.).

[3] = test system: glioma Hs683 and U373 cells; experiment: Cell cycle kinetics by flow cytometry, glioma cells; assay type: cell-based, human
Experimental: as §2, with “glioma Hs683 (ATCC code HTB-138) and U373 (ATCC code HTB-17)” for “prostate cancer”, “UNBS5162 as indicated” for “UNBS5162”, “methodology (Mijatovic et al. Neoplasia 2006, 2008).” for “methodology.”, “F ACScan/CellQuest” for “FACScan/CellQuest”, “Fla., USA).” for “Fla.).”

CN(C)CCN1C(=O)c2cccc3cc(NC(N)=O)cc(c23)C1=O [UNBS5162, N-{2-[2-(dimethylamino)ethyl]-1,3-dioxo-2,3-dihydro-1H-benzo[de]isoquinolin-5-yl}urea]
IC50 (PC3): 17.3 µM
cell dynamics (videomicroscopy) (PC-3 [1]; 1 μM): induced no detectable changes
cell population development (videomicroscopy) (PC-3 [1]; 10 μM, six days of observation): prevented PC-3 cell population development
IC50 (BxPC3; BXPC-3, 72 h, Bx-PC-3, 3 days of culturing, mean of six determinations, read-out: IC50 (μM) In Vitro Growth Inhibition): 9.1 µM
IC50 (BxPC3; BXPC-3, BxPC3, 72 hours incubation, range of molar concentrations, read-out: IC50): 5 to 10 µM
E2F1 expression at protein and mRNA levels (E2F1): dramatic decrease in E2F1 expression
cell cycle kinetics (PC-3 [2]; 1 μM): did not significantly (P>0.05) modify
cell cycle kinetics, G2 block (PC-3 [2]; 10 μM for 72 hours): markedly blocked PC-3 cells in their G2 cell cycle phase
cell cycle kinetics (PC-3 [2]; chronic 1 μM for 5 days (5×1) or 3 weeks (3w1)): did not notably modify PC-3 cell cycle kinetics
cell cycle kinetics, G2 block ([3]; Hs683 and U373, 10 μM for 72 h): markedly blocked both Hs683 and U373 cells in their G2 cell cycle phase
cell cycle kinetics ([3]; glioma cells, 1 μM): did not significantly modify glioma cell cycle kinetics
cell cycle kinetics ([3]; glioma cells, chronic 1 μM for five days): did not notably modify glioma cell cycle kinetics
cell death on chronic treatment ([3]; glioma cells, chronic 10 μM for five days): induced the death of all assayed cells before the end of experiment
